Results: patent publication US20040009939A1, “Methods of enhancing immune induction involving MDA-7” (Board of Regent, The University of Texas System, priority 2002, published 2004)

Legend:
Format in all cases: cell-based, human
[1] = test system: A549 (wt p53), H1299 (null p53), and H322J (mutant p53) lung cancer cells; experiment: Apoptosis by propidium iodide staining and FACS in lung cancer cells; details: combination with 2-AP
Method: (§1) Apoptotic cells by propidium iodide staining and FACS analysis were measured. Cells were harvested, pelleted by centrifugation and resuspended in phosphate-buffered saline containing 50 μg/ml propidium iodide, 0.1% Triton X-100, and 0.1% sodium citrate. Samples were stored at 4° C. for 16 hours and vortexed prior to FACS analysis (Becton-Dickenson FACScan, Mountain View, Calif.; FL-3 channel). Cellular viability was assessed with the XTT assay by growing cells in 96-well plates at 100 μL volume/well. After treatment with Ad-mda7 or control vectors, cells were incubated with the tetrazolium salt XTT according to the Roche protocol (Roche Diagnostics, Mannheim, Germany). Viability was assessed spectrophotometrically on an enzyme-linked immunosorbent assay (ELISA) plate reader.
(§2) Apoptotic cells were measured by propidium iodide staining and FACS analysis. Cells were harvested, pelleted by centrifugation and resuspended in phosphate-buffered saline (PBS) containing 50 μg/ml propidium iodide, 0.1% Triton X-100, and 0.1% sodium citrate. Samples were stored at 4° C. for 16 hours and vortexed prior to FACS analysis (Becton-Dickenson FACScan, Mountain View, Calif.; FL-3 channel). Cellular viability was assessed with the XTT assay by growing cells in 96-well plates in 100 μl volume/well. […] Viability was assessed spectrophotometrically on an enzyme-linked immunosorbent assay (ELISA) plate reader.

[2] = test system: A549 and H1299 lung cancer cell lines; experiment: XTT cellular viability assay; details: 2-AP (10 mM) alone
Method: as §1, §2

PKR = experiment: Immunoblot and confocal analysis of PKR, PKR substrates and caspases; details: A549; immunoprecipitation; 10 mM 2-AP
Method: Forty-eight hours after transfection, cell extracts were prepared for immunoblot assays as previously described (Pataer et al, 2000). The following antibodies were used: Bc1-2, Bak, Bax, PKR (K-17), eIF-2α, β-actin, p38 (A-12), phosphospecific p38 (D-8), stat1 (C-136), phosphospecific stat1 (A-2), stat3 (F-2), phosphospecific stat3 (B-7), anti-Tyk2 (C-20) and phosphospecific anti-Tyk (PY-99) (Santa Cruz Biotechnology, Santa Cruz, Calif.); Caspase 3, caspase-9, caspase-8 and Bid (PharMingen , San Diego, Calif.) and the phosphospecific PKR [pT451] and eIF-2a [pS51] (BioSource International, Camarillo, Calif.). The polyclonal and monoclonal antibodies to MDA-7 were obtained from Introgen Therapeutics, Inc. (Houston, Tex.).
4×10^5 cells/well were grown on chamber slides overnight and infected with Ad-mda7, Ad-Luc or PBS. 48 hrs later cells were washed with PBS and fixed overnight in 4% paraformaldehyde. Cells were then permeabilized for 20 min at 4° C. with 0.2% triton-X10O and blocked with 5% normal horse serum and 1% normal goat serum. Rabbit polyclonal anti-MDA7 and mouse monoclonal anti-PKR(B-10) were incubated overnight at 4° C. and developed with Rhodamine or FITC goat anti-rabbit IgG for 30-45 min at 37° C. Cells were then visualized under confocal microscopy.

[3] = test system: eIF-2α protein synthesis inhibition; experiment: Measurement of cellular protein synthesis; details: with 2-AP
Method: Cells were treated with Ad-mda7 or Ad-Luc for 48 hrs. Where indicated, cells were treated with 1 mM 2-AP for 48 hrs. Measurement of protein synthesis was performed as previously described (14). After treatment, approximately 1×10^6 cell equivalents were incubated with L-[U-^14C] amino acid mixture (Amersham, Piscataway, N.J.) at 2 μCi/ml for 10 min at 37° C. The reaction was terminated by the addition of 20% (wt/vol) trichloroacetic acid and the radioactivity in the acid-precipitable fraction was measured in a scintillation counter.

NF-κB = NF-κB activation (electromobility shift assay)
Method: Studies were conducted to determine whether transgenic MDA-7 expression results in NF-κB activation, and to evaluate the role of NF-κB in protecting tumor cells from MDA-7 induced apoptosis.

H1299 cells = experiment: MDA-7 secretion and trypan blue cytotoxicity with glycosylation and secretion inhibitors; details: for concentration that completely blocks secretion of MDA-7 protein: Ad-mda7 transduced H1299
Method: Since glycosylated proteins generally acquire sugars during sorting through the ER and Golgi apparatus, the effect of glycosylation and secretion inhibitors on MDA-7 intracellular processing and subsequent secretion was evaluated. Tunicamycin inhibits the addition of sugars to proteins within the ER, while brefeldin A inhibits vesicle transport of proteins from the ER to the Golgi. Both disrupt the secretion of proteins. The cytotoxicity caused by Ad-mda7 in the presence of these glycosylation and secretion inhibitors was evaluated. Tunicamycin and brefeldin A levels were titrated until inhibition of secretion of MDA-7 protein could be detected. As shown in FIGS. 26A and 26B, treatment of H1299 cells with 2 μg/ml tunicamycin completely blocks secretion of MDA-7 protein, whereas less than 1 μg/ml of brefeldin A is required for this effect. Note that blocking secretion using either drug results in substantial intracellular accumulation of MDA-7 protein. […] The enhanced killing may be due to the tunicamycin sensitizing cells to apoptotic death. […] Therefore, secreted MDA-7 protein is unable to induce killing in cancer cells and is not required for Ad-mda7 mediated apoptosis and eventual killing of cancer cells (FIG. 32B).

H1299 and A549 cells = experiment: Mitochondrial membrane potential (TMRE) and apoptosis; details: Staurosporine 1 μM
Method: Apoptotic cells were measured by propidium iodide staining and FACS analysis. Cells were harvested, pelleted by centrifugation and resuspended in phosphate-buffered saline (PBS) containing 50 μg/ml propidium iodide, 0.1% Triton X-100, and 0.1% sodium citrate. Samples were stored at 4° C. for 16 hours and vortexed prior to FACS analysis (Becton-Dickenson FACScan, Mountain View, Calif.; FL-3 channel). Cellular viability was assessed with the XTT assay by growing cells in 96-well plates in 100 μl volume/well. On day one, cells were transduced with Ad-mda-7, Ad-p53 or control vectors. On day two, the cells were incubated with the tetrazolium salt XTT for 4 to 24 hours according to the Roche protocol (Roche Diagnostics, Mannheim, Germany). Viability was assessed spectrophotometrically on an enzyme-linked immunosorbent assay (ELISA) plate reader.
The potential-sensitive fluorochrome tetramethylrhodamine, ethylester, perchlorate (TMRE) (Molecular Probes, Eugene, Oreg.) was used to measure ΔΨm. Cells were incubated with 25 nM TMRE for 30 minutes at 37° C. in the dark, washed in PBS, and analyzed by FACS on the FL-2 channel (FACScan: Becton Dickinson, Mountain View, Calif.).

HUVEC and HMVEC cells = experiment: Endothelial cell differentiation (tube formation) assay; details: HUVEC and HMVEC; 24 h
Method: Endothelial cell differentiation (tube formation) assays were done using an in vitro angiogenesis assay kit (Chemicon, Temecula, Calif.). Briefly, HUVEC and HMVEC cells were grown to 80% confluency, collected, resuspended in growth medium and plated at a concentration of 2×10^4 cells/well in a 96-well plate coated with matrigel (Chemicon, Temecula, Calif.). To the wells, varying concentrations of MDA-7 protein were added and incubated for 24 h at 37° C. Wells that were not treated with MDA-7 protein served as a negative control. The ability of sMDA-7 to inhibit tube formation was determined and quantitated by counting the number of tubes under bright field microscopy. All samples were tested in duplicate. For comparative studies using MDA-7 and endostatin (Calbiochem), cells were plated as described above and exposed to varying concentration of the proteins. […] All other experimental procedures were the same as described above.

## Nc1ncc2[nH]cnc2n1.O=[N+]([O-])O [2-AP, 2-Aminopurine Nitrate Salt]
[1]
  apoptosis induction and cell killing in cells treated with Ad-mda7: blocked apoptosis induction and cell killing in a dose dependent manner
[2]
  cell viability: no effect on cell viability
PKR
  PKR and eIF-2α phosphorylation in Ad-mda7 treated cells: attenuated PKR activation with inhibition of both PKR and eIF-2α phosphorylation
[3]
  protein synthesis in Ad-mda7 treated cells: reversal of eIF-2α protein synthesis inhibition

## CC1=C(CC(=O)O)c2cc(F)ccc2/C1=C\c1ccc([S+](C)[O-])cc1 (stereo not drawn) [Sulindac]
NF-κB
  TNF-mediated NF-κB activation: inhibited TNF-mediated NF-κB activation in a dose-dependent manner
  activation of the NF-κB pathway: inhibited the activation of the NF-κB pathway

## C[C@H]1CCC/C=C/[C@@H]2C[C@H](O)C[C@H]2[C@H](O)/C=C/C(=O)O1 [brefeldin A]
H1299 cells
  concentration that completely blocks secretion of MDA-7 protein: less than 1 μg/ml

## CN[C@@H]1C[C@H]2O[C@@](C)([C@@H]1OC)n1c3ccccc3c3c4c(c5c6ccccc6n2c5c31)C(=O)NC4 [staurosporine]
H1299 and A549 cells; A549 cells
  MMP changes and apoptosis: induces MMP changes and apoptosis
H1299 and A549 cells; H1299 cells
  MMP changes and apoptosis: able to induce MMP changes and the induction of apoptosis

## endostatin [reference compound]
HUVEC and HMVEC cells
  inhibition of endothelial tube formation: the inhibitory effect by endostatin was not observed

## tunicamycin
H1299 cells; 2 μg/ml tunicamycin, trypan blue
  cell death, inhibitor alone: did not induce death
H1299 cells
  concentration that completely blocks secretion of MDA-7 protein: 2 µg/mL
